These results are taken from US20250154154A1 (Relay Binney Street, 2nd Floor, priority 2020, published 2025).

Test [1] concerns RBE cells. Briefly: Cell Viability Protocol (CellTiterGlo), RBE cells. As to conditions: RBE or SNU-1079 cells, 72 or 120 hour, cell line and time not given. The format is cell-based. The procedure:
RBE or SNU-1079 cells were cultured in T-75 or T-175 flasks at 37° C., 5% CO2, 95% relative humidity in RPMI 1640 medium with 10% FBS and 1% Penicillin/Streptomycin (media) and detached with 0.25% trypsin/EDTA at 80-90% confluency. Cells were then seeded in 40 μL media per well in 384-well flat-bottom polystyrene microplates (Corning Cat. No. 3570) at a seeding density of 1200 cells/well and incubated for 24 hours at 37° C. with 5% CO2, 95% relative humidity. On the next day, test compounds were prepared in 10 mM DMSO stock solution and diluted to the indicated concentrations in a 384-well compound source plate. DMSO was employed as a vehicle control. Compounds (40 nL) were transferred to 384-well cell culture plate(s) using the liquid handler Echo550. Plates were incubated at 37° C. with 5% CO2 for 72 hour or 120 hour (as indicated). CellTiterGlo reagent was warmed to 37° C. and added into each well (40 μL per well). Plates were incubated at room temperature for 30 min followed by reading on the EnSpire or EnVision plate reader. Relative viability (% remaining activity) was calculated relative to DMSO control and IC50 values were obtained from dose-response data fitted to a 4-parameter curve.

Test [2] concerns the target SRC (Homo sapiens, UniProt P12931). The test is described as follows: SRC Biochemical Assay Protocol (microfluidic mobility shift assay, FLPeptide4 substrate). The procedure: SRC Biochemical Assay Protocol
Src biochemical kinase activity was measured using a surrogate fluorescent peptide substrate [FLPeptide4; 5-FAM-EGIYGVLFKKK-CONH2 (PerkinElmer Cat. No. 760348)] with a microfluidic mobility shift assay. Reactions were performed in 384-well flat bottom polystyrene microplates (Corning Cat. No. 3570) at a final volume of 20 μL in 50 mM HEPES pH 7.4, 1 mM EGTA, 10 mM MgCl2, 0.01% Brij-35, 2 mM DTT, 0.05% BSA, 1% DMSO. Inhibition experiments were performed with compounds of the invention varying from 0.0017-100 μM with 0.26 nM SRC, 1.5 μM FLPeptide4, and 50 μM ATP. Specifically, 15 μl 1.3× mixtures of SRC+FLPeptide4+compounds were preincubated for 30 minutes at room temperature followed by addition of 5 μL 4×ATP. Reactions were carried out for 90 minutes then quenched with 40 μl 500 mM EDTA. Phosphorylated peptide product was measured with a mobility shift assay using a LabChip® EZ Reader system (PerkinElmer Cat. No. 122919). Inhibition ratios were calculated relative to neutral controls and IC50 values were obtained from dose response data fitted to a 4-parameter logistic model.

As to `CC(c1ccccc1)N1CCC(C#Cc2c(-c3ccc(Oc4ccccc4)cc3)c3c(N)ncnc3n2C(C)C)CC1` (centres unmarked) [II-144, 7-isopropyl-5-(4-phenoxyphenyl)-6-((1-(1-phenylethyl)piperidin-4-yl)ethynyl)-7H-pyrrolo[2,3-d]pyrimidin-4-amine], the 50% inhibitory concentration (IC50) in test [1] lay within 1000 to 10000 nM; in test [2], 10 to 1000 nM.
On to `COc1cc(Oc2cccc(C)n2)ccc1-c1c(C#C[C@@H]2[C@H]3CN(C(=O)/C=C/CN4CCC(F)C4)C[C@@H]23)n(C)c2ncnc(N)c12` (stereo partly drawn) [II-236, (E)-1-((1R,5S,6s)-6-((4-amino-5-(2-methoxy-4-((6-methylpyridin-2-yl)oxy)phenyl)-7-methyl-7H-pyrrolo[2,3-d]pyrimidin-6-yl)ethynyl)-3-azabicyclo[3.1.0]hexan-3-yl)-4-(3-fluoropyrrolidin-1-yl)but-2-en-1-one], for which the IC50 in test [1] and in test [2] was 10 to 1000 nM each time.
Turning to `CC(=O)N1CCC(C#Cc2c(-c3ccc(Oc4ccccc4)cc3)c3c(N)ncnc3n2C(C)C)CC1` [II-139, 1-(4-((4-amino-7-isopropyl-5-(4-phenoxyphenyl)-7H-pyrrolo[2,3-d]pyrimidin-6-yl)ethynyl)piperidin-1-yl)ethanone], the IC50 in test [1] and in test [2] was 10 to 1000 nM in each case.
For `C=CC(=O)N1CCC(N2CC(C#Cc3c(-c4ccc(Oc5cccc(C)n5)c(OC)c4)c4c(N)ncnc4n3C)C2)C[C@H]1CO` (stereo partly drawn) [II-242, 1-((2S)-4-(3-((4-amino-5-(3-methoxy-4-(6-methylpyridin-2-yloxy)phenyl)-7-methyl-7H-pyrrolo[2,3-d]pyrimidin-6-yl)ethynyl)azetidin-1-yl)-2-(hydroxymethyl)piperidin-1-yl)prop-2-en-1-one], the IC50 in test [1] and in test [2] was 10 to 1000 nM each time.
Turning to `COc1cc(-c2c(C#C[C@@H]3[C@H]4CN(C(=O)/C=C/CN(C)C)C[C@@H]34)n(C)c3ncnc(N)c23)ccc1Oc1ccccn1` [II-233, (E)-1-((1R,5S,6s)-6-((4-amino-5-(3-methoxy-4-(pyridin-2-yloxy)phenyl)-7-methyl-7H-pyrrolo[2,3-d]pyrimidin-6-yl)ethynyl)-3-azabicyclo[3.1.0]hexan-3-yl)-4-(dimethylamino) but-2-en-1-one], the IC50 in test [1] and in test [2] was 10 to 1000 nM each time.
For the compound `C=CC(=O)N1CCC(N2CC(C#Cc3c(-c4ccc(Oc5ccccn5)c(OC)c4)c4c(N)ncnc4n3C)C2)C(S(C)(=O)=O)C1` (centres unmarked) [III-87], in test [2], the IC50 was 10 to 1000 nM.
Take `C=CC(=O)N1CC(N2CCC(C#Cc3c(-c4ccc(Nc5ccccn5)cc4)c4c(N)ncnc4n3C(C)C)CC2)C1` [Example I-46]: the IC50 in test [2] lay within 10 to 1000 nM.
With `C=CC(=O)N[C@H]1CC[C@H](C#Cc2c(-c3ccc(Oc4ccccc4)cc3)c3c(N)ncnc3n2C)CC1` [III-58], the IC50 in test [2] was 10 to 1000 nM.
Same read-out and setting: to `C=CC(=O)N[C@@H](C)C(=O)N1CCC(C#Cc2c(-c3ccc(Oc4ccccc4)cc3)c3c(N)ncnc3n2C)CC1` [III-45] belongs no more than 10 nM; to `C=CC(=O)N1CCCC(N2CC(C#Cc3c(-c4ccc(Oc5ccccc5)cc4)c4c(N)ncnc4n3C)C2)CC1` (centres unmarked) [III-56], 10 to 1000 nM; to `C=CC(=O)N1CCC(C#Cc2c(-c3ccc(Oc4ccccc4)cc3)c3c(N)ncnc3n2[C@@H](C)CO)CC1` (single isomer, unassigned) [Example I-26], 10 to 1000 nM.
Still for that read-out and setting: to `CC(C)n1c(C#CC2CCN(C#N)CC2)c(-c2ccc(Oc3ccccc3)cc2)c2c(N)ncnc21` [Example I-2] belongs 10 to 1000 nM.
For `C=CC(=O)N1CCC(O)(C#Cc2c(-c3ccc(Oc4ccccc4)c(C#N)c3)c3c(N)ncnc3n2C)CC1` [III-54], the IC50 in test [2] lay in the range of 1000 to 10000 nM.
`CC(C(N)=O)N1CCC(C#Cc2c(-c3ccc(Oc4ccccc4)cc3)c3c(N)ncnc3n2C(C)C)CC1` (centres unmarked) [II-150, 2-(4-((4-amino-7-isopropyl-5-(4-phenoxyphenyl)-7H-pyrrolo[2,3-d]pyrimidin-6-yl)ethynyl)piperidin-1-yl)propanamide]: the IC50 in test [2] lay in the range of 10 to 1000 nM.
In the case of `C=CC(=O)N1CCC(N2CC(C#Cc3c(-c4ccc(Oc5ccccc5)cc4)c4c(N)ncnc4n3[C@H]3C[C@H](O)C3)C2)CC1` [III-68], the 50% inhibitory concentration (IC50) in test [2] was 10 to 1000 nM.
On the same count and under the same terms, to `C=CC(=O)N1CCC(N2CC(C#Cc3c(-c4ccc(Oc5ccccc5)c(C)c4)c4c(N)ncnc4n3C)C2)CC1` [III-83] belongs 10 to 1000 nM.
On the same count and under the same terms, to `CC(C)n1c(C#CC2CCN(C3CNC3)CC2)c(-c2ccc(Oc3ccccc3)cc2)c2c(N)ncnc21` [II-153, 6-((1-(azetidin-3-yl)piperidin-4-yl)ethynyl)-7-isopropyl-5-(4-phenoxyphenyl)-7H-pyrrolo[2,3-d]pyrimidin-4-amine] belongs no more than 10 nM.
For the compound `CN(C)C/C=C/C(=O)N1CC(C#Cc2c(-c3ccc(Oc4ccccc4)cc3)c3c(N)ncnc3n2C)C1` [III-84], the IC50 in test [2] lay within 10 to 1000 nM.
`C=CC(=O)N1CCC(N2CC(C#Cc3c(-c4ccc(Oc5ccccc5)c(C#N)c4)c4c(N)ncnc4n3C)C2)CC1` [III-74]: in test [2], the half-maximal inhibitory concentration (IC50) is greater than 10000 nM.
`C=CC(=O)N[C@H]1CC[C@@H](C#Cc2c(-c3ccc(Oc4ccccc4)cc3)c3c(N)ncnc3n2C)CC1` [III-57]: in test [2], the IC50 lay in the range of 10 to 1000 nM.
Take `C=CC(=O)N1CCC(N2CC(C#Cc3c(-c4ccc(Oc5ccccc5)cc4)c4c(N)ncnc4n3C)C2)C[C@@H]1C` (some centres unmarked) [III-47]: the IC50 in test [2] was in the range of 10 to 1000 nM.
The same measure, in the same setting: the same measure for `Cn1c(C#CC2CN(C(=O)/C=C/CN3CCOCC3)C2)c(-c2ccc(Oc3ccccc3)cc2)c2c(N)ncnc21` [III-61]: 10 to 1000 nM; for `C=CC(=O)N1CCC(C#Cc2c(-c3ccc(Oc4cccc(C)c4)cc3)c3c(N)ncnc3n2C(C)C)CC1` [Example I-21]: 10 to 1000 nM.
Consider `C=C(C)C(=O)N1CCC(C#Cc2c(-c3ccc(Oc4ccccc4)cc3)c3c(N)ncnc3n2C)CC1` [III-40], for which the IC50 in test [2] fell in the range of 10 to 1000 nM.
On to `C=CC(=O)N1CCC(O)(C#Cc2c(-c3ccc(Oc4ccccc4)cc3)c3c(N)ncnc3n2C)C[C@H]1C` (some centres unmarked) [III-48], for which the IC50 in test [2] was in the range of 10 to 1000 nM.
The same measure, in the same setting: the same measure for `C=CC(=O)N1CCC(C#Cc2c(-c3ccc(Oc4ncccn4)cc3)c3c(N)ncnc3n2C(C)C)CC1` [Example I-15]: 10 to 1000 nM; for `CN(C)C/C=C/C(=O)N1CCC(C#Cc2c(-c3ccc(Oc4ccccc4)cc3)c3c(N)ncnc3n2C)C1` (centres unmarked) [III-22]: 10 to 1000 nM.
Same read-out and setting: the same measure for `C=CC(=O)N1CCC(C#Cc2c(-c3ccc(Oc4cnccn4)cc3)c3c(N)ncnc3n2C(C)C)CC1` [Example I-14]: 10 to 1000 nM; for `C=CC(=O)N1CCC(N2CC(C#Cc3c(-c4ccc(Oc5cccc(C)n5)c(OC)c4)c4c(N)ncnc4n3CC)C2)CC1` [II-121]: 10 to 1000 nM; for “N-[(1r,4r)-4-[2-[4- amino-7-(2- hydroxyethyl)-5- [3-methoxy-4-[(6- methylpyridin-2- yl)oxy]phenyl]- 7H-pyrrolo[2,3- d]pyrimidin-6- yllethynyl] cyclohexyl] prop-2- enamide [II-311]”: no more than 10 nM.
For the compound `CC(C)n1c(C#CC2CCC(NC(=O)CCl)CC2)c(-c2ccc(Oc3ccccc3)cc2)c2c(N)ncnc21` (centres unmarked) [Example I-38], the IC50 in test [2] lay in the range of 10 to 1000 nM.
On the same count and under the same terms, to `CC(C)n1c(C#CC2CNC2)c(-c2ccc(Oc3ccccc3)cc2)c2c(N)ncnc21` [II-152, 6-(azetidin-3-ylethynyl)-7-isopropyl-5-(4-phenoxyphenyl)-7H-pyrrolo[2,3-d]pyrimidin-4-amine] belongs no more than 10 nM; to `C=CC(=O)N1CCC(N2CC(C#Cc3c(-c4ccc(Oc5ccccc5)cc4)c4c(N)ncnc4n3C)C2)C[C@@H]1CO` (some centres unmarked) [III-67], 10 to 1000 nM.
Turning to `Cn1c(C#CC2CN(C(=O)/C=C/CN3CC(O)C3)C2)c(-c2ccc(Oc3ccccc3)cc2)c2c(N)ncnc21` [III-78], in test [2], the IC50 was 10 to 1000 nM.
Same read-out and setting: the same measure for `C=CC(=O)NCC#Cc1c(-c2ccc(Oc3ncccn3)cc2)c2c(N)ncnc2n1C` [III-95]: 1000 to 10000 nM.
`C=CC(=O)N1CCC(C#Cc2c(-c3cnc(Oc4ccccc4)nc3)c3c(N)ncnc3n2C(C)C)CC1` [Example I-13]: the half-inhibitory concentration (IC50) in test [2] was in the range of 1000 to 10000 nM.
Turning to `CC(C)n1c(C#Cc2cnn(C)c2)c(-c2ccc(Oc3ccccc3)cc2)c2c(N)ncnc21` [III-7], in test [2], the concentration for half-maximal inhibition (IC50) lay in the range of 10 to 1000 nM.
Turning to `C=CC(=O)N(C)CC(=O)N1CCC(C#Cc2c(-c3ccc(Oc4ccccc4)cc3)c3c(N)ncnc3n2C)CC1` [III-43], the concentration for half-maximal inhibition (IC50) in test [2] lay in the range of 10 to 1000 nM.
Take `C=CC(=O)N1CC(C#Cc2c(-c3ccc(Oc4ccccc4)cc3)c3c(N)ncnc3n2C(C)C)C1` [Example I-3]: the half-inhibitory concentration (IC50) in test [2] is no more than 10 nM.
